From patent US20220073536A1 (Rigel Pharmaceuticals, Inc., priority 2003, published 2022) come the findings set out here.

For assay [1], the system named is cultured human mast cells (CHMC). Nature of the assay: CHMC low cell density IgE activation: tryptase assay. The format is cell-based. The settings on record: IgE activation. In short, it runs like this:
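CHMC at 1000–1500 cells/well were preincubated 1 hr at 37° C., stimulated with anti-IgE for 30 minutes at 37° C., then pelleted. Supernatant tryptase was measured with a fluorogenic substrate after 30 min at room temperature, against un-stimulated control wells.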

Assay [2] shares this test system. Put plainly: CHMC low cell density ionomycin activation: tryptase assay. The format is cell-based. The settings on record: read-out: LD Tryptase, CHMC, Iono, 3 pt.
The mark [3] stands for this setting: Homo sapiens, Mast cell, low cell density, 3 pt, read-out: LD Tryptase, CHMC, IgE, 3 pt.
The mark [4] stands for this setting: Homo sapiens, Mast cell, low cell density, 8 pt, read-out: LD Tryptase, CHMC, IgE, 8 pt.
Where [5] appears, read: Homo sapiens, Mast cell, low cell density, 3 pt.
The mark [6] stands for this setting: low cell density, 3 pt, read-out: LD Tryptase, CHMC, IgE, 3 pt.
Where [7] appears, read: low cell density, 8 pt, read-out: LD Tryptase, CHMC, IgE, 8 pt.
Setting [8] is: Homo sapiens, Mast cell, low cell density CHMC, tryptase release, 3 point, read-out: LD Tryptase, CHMC, IgE, 3 pt.
Setting [9] is: Homo sapiens, Mast cell, low cell density CHMC, tryptase release, 3 point.

A value given as a limit tells only on which side of the number the result lay.

Regarding `CNS(=O)(=O)c1ccc(Nc2ncc(F)c(Nc3ccc4c(c3)OCCO4)n2)cc1OC` [Compound 493, N4-(3,4-Ethylenedioxyphenyl)-5-fluoro-N2-[4-(N-methylamino)sulfonyl-3-methoxyphenyl]-2,4-pyrimidinediamine], the IC50 in assay [1] (setting [3]) was below 10 µM; in assay [1] (setting [4]), below 10 µM; in assay [2] (setting [5]) it was above 10 µM.
With `CNS(=O)(=O)c1ccc(Nc2ncc(F)c(Nc3ccc(OC)c(OC)c3)n2)cc1OC` [Compound 494, N4-(3,4-Dimethoxyphenyl)-5-fluoro-N2-[3-methoxyphenyl-4-(N-methylamino)sulfonyl]-2,4-pyrimidinediamine], the IC50 was below 10 µM in assay [1] (setting [6]); below 10 µM in assay [1] (setting [7]); above 10 µM in assay [2] (low cell density, 3 pt).
Regarding `CNS(=O)(=O)c1ccc(Nc2ncc(F)c(Nc3cc(OC)cc(OC)c3)n2)cc1OC` [Compound 495, N4-(3,5-Dimethoxyphenyl)-5-fluoro-N2-[3-methoxyphenyl-4-(methylamino)sulfonyl]-2,4-pyrimidinediamine], the IC50 in assay [1] (setting [6]) is below 10 µM; in assay [2] (low cell density, 3 pt), above 10 µM.
Take `CNS(=O)(=O)c1ccc(Nc2ncc(F)c(Nc3ccc4c(c3)NC(=O)C(C)(C)O4)n2)cc1OC` [Compound 496, N4-(2,2-Dimethyl-3-oxo-4H-benz[1,4]oxazin-6-yl)-5-fluoro-N2-[3-methoxyphenyl-4-(methylamino)sulfonyl]-2,4-pyrimidinediamine]: the IC50 in assay [1] (setting [6]) is below 10 µM; in assay [1] (setting [7]), below 10 µM; in assay [2] (low cell density, 3 pt), below 10 µM.
As to `CNS(=O)(=O)c1ccc(Nc2ncc(F)c(Nc3ccc(Cl)c(C(F)(F)F)c3)n2)cc1OC` [Compound 497, N4-(4-Chloro-3-trifluoromethylphenyl)-5-fluoro-N2-[3-methoxyphenyl-4-(methylamino)sulfonyl]-2,4-pyrimidinediamine], the IC50 is below 10 µM in assay [1] (setting [6]); below 10 µM in assay [1] (setting [7]); above 10 µM in assay [2] (low cell density, 3 pt).
As to `CNS(=O)(=O)c1ccc(Nc2ncc(F)c(Nc3ccc(OC(F)(F)F)c(Cl)c3)n2)cc1OC` [Compound 498, N4-(3-Chloro-4-trifluoromethoxyphenyl)-5-fluoro-N2-[4-(3-methoxyphenyl-N-methylamino)sulfonyl]-2,4-pyrimidinediamine], the IC50 in assay [1] (setting [6]) was below 10 µM; in assay [1] (setting [7]) it was below 10 µM; in assay [2] (low cell density, 3 pt), above 10 µM.
On to `CNS(=O)(=O)c1ccc(Nc2ncc(F)c(Nc3cccc(O)c3)n2)cc1OC` [Compound 499, 5-Fluoro-N4-(3-hydroxyphenyl)-N2-[3-methoxyphenyl-4-(N-methylamino)sulfonyl]-2,4-pyrimidinediamine], for which the IC50 in assay [1] (setting [6]) is below 10 µM; in assay [1] (setting [7]), below 10 µM; in assay [2] (low cell density, 3 pt), above 10 µM.
As for `CNc1ncc(F)c(N(C)c2ccc(OC)nc2OC)n1` [Compound 500], the IC50 in assay [1] (setting [3]) and in assay [2] (setting [5]) was above 10 µM each time.
Turning to `CNc1ncc(F)c(N(C)c2cc(Cl)c(OC)c(Cl)c2)n1` [Compound 501], the IC50 in assay [1] (setting [3]) and in assay [2] (setting [5]) was above 10 µM throughout.
On to `CNS(=O)(=O)c1ccc(Nc2nc(Cl)ncc2F)cc1OC` [Compound 502, 2-Chloro-5-fluoro-N4-[4-(N-methylamino)sulfonyl-3-methoxyphenyl]-2,4-pyrimidineamine], for which the IC50 in assay [1] (setting [6]) was above 10 µM; in assay [2] (low cell density, 3 pt) it was above 10 µM.
Take `COc1cc(Nc2ncc(F)c(Nc3ccc(OCCO)nc3)n2)cc(OC)c1` [Compound 503, N2-(3,5-Dimethoxyphenyl)-5-fluoro-N4-[2-(2-hydroxyethyleneoxy)pyrid-5-yl]-2,4-pyrimidinediamine]: the IC50 in assay [1] (setting [6]) was below 10 µM; in assay [1] (setting [7]), below 10 µM; in assay [2] (low cell density, 3 pt), above 10 µM.
Take `Cc1cc(C)cc(Nc2ncc(F)c(Nc3ccc(OCCO)nc3)n2)c1` [Compound 504, N2-(3,5-Dimethylphenyl)-5-fluoro-N4-[2-(2-hydroxyethyleneoxy)pyrid-5-yl]-2,4-pyrimidinediamine]: the IC50 in assay [1] (setting [6]) is below 10 µM; in assay [1] (setting [7]) it was below 10 µM; in assay [2] (low cell density, 3 pt), above 10 µM.
Consider `COc1ccc(Nc2ncc(F)c(Nc3ccc(OCCO)nc3)n2)cc1Cl` [Compound 505, N2-(3-Chloro-4-methoxyphenyl)-5-fluoro-N4-[2-(2-hydroxyethyleneoxy)pyrid-5-yl]-2,4-pyrimidinediamine], for which the IC50 is below 10 µM in assay [1] (setting [6]); below 10 µM in assay [1] (setting [7]); above 10 µM in assay [2] (low cell density, 3 pt).
As for `C=CCNc1ncc(F)c(N(C)c2ccc3c(c2)OCCO3)n1` [Compound 506, N2-Allyl-N4-(3,4-ethylenedioxyphenyl)-5-fluoro-N4-methyl-2,4-pyrimidinediamine], the IC50 in assay [1] (setting [3]) and in assay [2] (setting [5]) was above 10 µM each time.
For `CNS(=O)(=O)c1ccc(Nc2nc(Nc3cc(OC)cc(OC)c3)ncc2F)cc1OC` [Compound 507], the IC50 in assay [1] (setting [3]) is below 10 µM; in assay [1] (setting [4]), below 10 µM; in assay [2] (setting [5]) it was above 10 µM.
Regarding `COc1cc(Nc2ncc(F)c(Nc3ccc(C)cn3)n2)cc(OC)c1` [Compound 508, N2-(3,5-Dimethoxyphenyl)-5-fluoro-N4-(3-methylpyrid-6-yl)-2,4-pyrimidinediamine], the IC50 is below 10 µM in assay [1] (setting [3]), below 10 µM in assay [1] (setting [4]) and above 10 µM in assay [2] (setting [5]).
As to `Cc1ccc(Nc2nc(Nc3cc(C)cc(C)c3)ncc2F)nc1` [Compound 509], the values for the IC50 in assay [1] (setting [3]), in assay [1] (setting [4]) and in assay [2] (setting [5]) were below 10 µM, below 10 µM and above 10 µM, respectively.
As for `COc1cc(Nc2ncc(F)c(Nc3ccc(Cl)cn3)n2)cc(OC)c1` [Compound 510], the IC50 in assay [1] (setting [3]) was below 10 µM; in assay [1] (setting [4]) it was below 10 µM; in assay [2] (setting [5]), above 10 µM.
Consider `Fc1cnc(Nc2cccc(-c3ncon3)c2)nc1Nc1ccc2c(c1)OCCO2` [Compound 512], for which the figures for the IC50 in assay [1] (setting [3]) and in assay [2] (setting [5]) were below 10 µM and above 10 µM, respectively.
With `COc1ccc(Nc2nc(Nc3cccc(-c4ncon4)c3)ncc2F)cc1OC` [Compound 513], the IC50 is below 10 µM in assay [1] (setting [3]) and above 10 µM in assay [2] (setting [5]).
The corresponding values for `CC1(C)Oc2ccc(Nc3nc(Nc4cccc(-c5ncon5)c4)ncc3F)cc2NC1=O` [Compound 514, N4-(2,2-Dimethyl-3-oxo-4H-benz[1,4]oxazin-6-yl)-5-fluoro-N2-[3-(1,2,4-oxadiazol-3-yl)phenyl]-2,4-pyrimidinediamine] are below 10 µM and above 10 µM.
For `COC(=O)c1cc(Nc2ncc(F)c(Nc3ccc(OC)c(OC)c3)n2)cc(-c2ncco2)c1` [Compound 515, N4-(3,4-Dimethoxyphenyl)-5-fluoro-N2-[5-methoxycarbonyl-3-(oxazol-2-yl)phenyl]-2,4-pyrimidinediamine], the IC50 in assay [1] (setting [3]) was below 10 µM; in assay [2] (setting [5]) it was above 10 µM.
Take `COC(=O)c1cc(Nc2ncc(F)c(Nc3ccc4c(c3)OCCO4)n2)cc(-c2ncco2)c1` [Compound 516, N4-(3,4-Ethylenedioxyphenyl)-5-fluoro-N2-[5-methoxycarbonyl-3-(oxazol-2-yl)phenyl]-2,4-pyrimidinediamine]: the IC50 in assay [1] (setting [3]) and in assay [2] (setting [5]) was above 10 µM in each case.
In the case of `COC(=O)c1cc(Nc2ncc(F)c(Nc3ccc4c(c3)NC(=O)C(C)(C)O4)n2)cc(-c2ncco2)c1` [Compound 517, N4-(2,2-Dimethyl-3-oxo-4H-benz[1,4]oxazin-6-yl)-5-fluoro-N2-[5-methoxycarbonyl-3-(oxazol-2-yl)phenyl]-2,4-pyrimidinediamine], the IC50 in assay [1] (setting [3]) and in assay [2] (setting [5]) was above 10 µM throughout.
With `COC(=O)c1cc(Nc2ncc(F)c(Nc3cccc(O)c3)n2)cc(-c2ncco2)c1` [Compound 518, 5-Fluoro-N4-(3-hydroxyphenyl)-N2-[5-methoxycarbonyl-3-(oxazol-2-yl)phenyl]-2,4-pyrimidinediamine], the IC50 in assay [1] (setting [3]) is below 10 µM; in assay [2] (setting [5]) it was above 10 µM.
As to `Fc1cnc(Nc2cc(-c3ncco3)cc(C(F)(F)F)c2)nc1Nc1ccc2c(c1)OCCO2` [Compound 519, N4-(3,4-Ethylenedioxyphenyl)-5-fluoro-N2-[3-(oxazol-2-yl)-5-trifluoromethylphenyl]-2,4-pyrimidinediamine], the IC50 in assay [1] (setting [3]) is below 10 µM; in assay [2] (setting [5]), above 10 µM.
For `COc1ccc(Nc2nc(Nc3cc(-c4ncco4)cc(C(F)(F)F)c3)ncc2F)cc1OC` [Compound 520, N4-(3,4-Dimethoxyphenyl)-5-fluoro-N2-[3-(oxazol-2-yl)-5-trifluoromethylphenyl]-2,4-pyrimidinediamine], in that order: below 10 µM and above 10 µM.
As for `CC1(C)Oc2ccc(Nc3nc(Nc4cc(-c5ncco5)cc(C(F)(F)F)c4)ncc3F)cc2NC1=O` [Compound 521, N4-(2,2-Dimethyl-3-oxo-4H-benz[1,4]oxazin-6-yl)-5-fluoro-N2-[3-(oxazol-2-yl)-5-trifluoromethylphenyl]-2,4-pyrimidinediamine], the figures for the IC50 in assay [1] (setting [3]) and in assay [2] (setting [5]) were below 10 µM and above 10 µM, respectively.
In the case of `CC(C)Oc1ccc(N(C)c2nc(Cl)ncc2F)cn1` [Compound 576], the IC50 in assay [1] (setting [8]) and in assay [2] (setting [9]) was above 10 µM in each case.
As for `COc1cc(Nc2ncc(F)c(N(C)c3ccc(OC)c(Cl)c3)n2)cc(OC)c1` [Compound 577], the IC50 in assay [1] (setting [8]) is below 10 µM; in assay [2] (setting [9]), above 10 µM.
The corresponding values for `COc1ccc(N(C)c2nc(Nc3cc(C)c(OC)c(Cl)c3)ncc2F)cc1Cl` [Compound 578, N2-(3-Chloro-4-methoxy-5-methylphenyl)-N4-(3-chloro-4-methoxyphenyl)-5-fluoro-N4-methyl-2,4-pyrimidinediamine] are below 10 µM and above 10 µM.
